Several values for one entry are separate records, joined by “and”; a condition that tells them apart may be missing. Equal entries are not always repeated.
Columns and labels:
[1] = target: T1, α1β2γ2 GABAA receptors (Rattus norvegicus, UniProt P18508+P62813); assay: Stimulation of currents elicited by GABA (EC3-5), two-electrode voltage clamp, receptors expressed in Xenopus oocytes; format: cell-based
T1 construct: expressed in transfected cells; host or cells: Xenopus laevis oocytes, cRNA microinjection
T1 sequence (P62813 28-455): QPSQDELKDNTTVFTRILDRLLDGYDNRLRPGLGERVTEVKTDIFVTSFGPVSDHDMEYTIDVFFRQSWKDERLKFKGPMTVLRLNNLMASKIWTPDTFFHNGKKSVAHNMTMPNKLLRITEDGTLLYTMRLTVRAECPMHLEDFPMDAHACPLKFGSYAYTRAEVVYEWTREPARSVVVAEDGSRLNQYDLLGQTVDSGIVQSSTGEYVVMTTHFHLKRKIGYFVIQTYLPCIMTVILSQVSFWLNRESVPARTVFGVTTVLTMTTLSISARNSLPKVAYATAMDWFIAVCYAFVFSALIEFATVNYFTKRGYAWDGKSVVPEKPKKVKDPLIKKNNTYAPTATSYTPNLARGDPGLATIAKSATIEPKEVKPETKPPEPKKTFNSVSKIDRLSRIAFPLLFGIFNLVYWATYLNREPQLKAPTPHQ
T1 sequence (P63138 25-474 partner limits assumed): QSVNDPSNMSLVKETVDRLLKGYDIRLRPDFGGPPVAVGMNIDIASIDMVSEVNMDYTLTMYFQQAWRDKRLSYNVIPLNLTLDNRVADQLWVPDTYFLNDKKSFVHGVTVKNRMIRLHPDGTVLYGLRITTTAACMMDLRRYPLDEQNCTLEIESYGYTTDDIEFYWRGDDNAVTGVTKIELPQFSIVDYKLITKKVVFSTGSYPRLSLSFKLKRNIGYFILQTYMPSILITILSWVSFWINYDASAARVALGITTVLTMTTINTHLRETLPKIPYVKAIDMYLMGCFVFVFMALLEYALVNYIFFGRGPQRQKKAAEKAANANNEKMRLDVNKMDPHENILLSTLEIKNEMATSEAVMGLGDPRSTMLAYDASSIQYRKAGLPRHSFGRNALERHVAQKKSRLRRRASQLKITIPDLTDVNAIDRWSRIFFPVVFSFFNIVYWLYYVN
T1 sequence (P18508 39-466): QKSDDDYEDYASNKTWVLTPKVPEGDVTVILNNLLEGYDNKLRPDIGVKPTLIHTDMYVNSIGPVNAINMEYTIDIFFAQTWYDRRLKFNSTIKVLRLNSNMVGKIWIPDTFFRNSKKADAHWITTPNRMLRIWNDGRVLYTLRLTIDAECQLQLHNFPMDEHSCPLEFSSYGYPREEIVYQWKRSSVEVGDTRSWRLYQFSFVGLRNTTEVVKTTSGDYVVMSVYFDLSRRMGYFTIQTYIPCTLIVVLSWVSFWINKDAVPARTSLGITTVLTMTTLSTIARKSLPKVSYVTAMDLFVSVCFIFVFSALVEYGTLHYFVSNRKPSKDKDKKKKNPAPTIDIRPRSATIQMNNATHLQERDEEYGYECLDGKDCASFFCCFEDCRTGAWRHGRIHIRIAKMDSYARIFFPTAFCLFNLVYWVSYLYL
Text: (§1) 7-Chloro-3-(5-dimethylaminomethyl-[1,2,4]oxadiazol-3-yl)-5-methyl-4,5-dihydro-imidazol[1,5,-a][1,4]benzodiazepine-6-one was used to test the effects of the compound of formula (II): […]
(§2) Similar procedures were chosen as for the investigation of other GABAA receptor subunit specific substances (e.g., Baur et al., 2005; Mol. Pharmacol. 68, 787-792).
(§3) Lobes of the ovary containing the follicles were obtained by surgical procedures from female Xenopus laevis. Follicles were singled out using a platinum loop. Fifty nL of cRNA solution at a ratio of αx:β2:γ2 of 1:1:5 (3.3-10 nM αx (x=1, 2, 3, 5); 3.3-10 nM β2; 16.7-50 nM γ2) (Boileau et al., 2002; Neuropharmacology 43, 695-700) were microinjected into Xenopus follicles. Several hours after microinjection the follicles were freed of follicular layers and adhering connective tissue by a collagenase/hypertonic shock procedure (Sigel, 1987; J. Physiol. (Land) 386, 73-90). Oocytes were kept at constant 18° C. until measurement (1-4 days) in a modified Barth solution (88 mM NaCl, 1 mM KCl, 2.4 mM NaHCO3, 10 mM Hepes-NaOH (pH 7.5), 0.82 mM MgSO4×7H2O, 0.34 mM Ca(NO3)2×4H2O, 0.41 mM CaCl2×2H2O, 100 U Penicillin/mL, 100 μg Streptomycin/mL, sterile filtered).
(§4) Currents were measured using a home-built amplifier in combination with a xy-recorder or were digitized using a MacLab/200 (AD Instruments) and stored on a computer. Xenopus oocytes were voltage clamped using the two-electrode voltage clamp technique (electrode resistance about 0.8 MΩ) at −80 mV. The medium contained 90 mM NaCl, 1 mM KCl, 1 mM MgCl2, 1 mM CaCl2, 10 mM Na-Hepes (pH 7.4) and 0.5% DMSO.
GABA was applied for 20-50 seconds without or in combination with other drugs and a washout period of 4 minutes was allowed to ensure full recovery from desensitization, which was experimentally determined. The perfusion solution (6 mL/min) was applied through a glass capillary with an inner diameter of 1.35 mm, the mouth of which was placed about 0.4 mm from the surface of the oocyte. The rate of solution change under our conditions has been estimated 70% within less than 0.5 s (Sigel et al., 1990; Neuron 5, 703-711). The entire perfusion system and the assay chamber were cleaned between drug applications by washing with DMSO.
Data is given as mean±SD, except in the figures where data is shown for clarity as mean±SEM. Current stimulation was calculated as follows: stimulation (%)=((I(GABA+modulator)−I(GABA))/I(GABA))×100%, where I is the current amplitude. Where indicated, the stimulation was standardized to the stimulation by 1 μM diazepam (100%). To obtain FIGS. 1-4, values for current stimulation obtained at a given concentration of modulator at a given subunit combination were averaged. The data points were fitted with the equation stimulation=efficacy/(1+(potency/concentration of modulator)). The values given in the Tables (Summary) are obtained by fitting individual curves and subsequently averaging efficacy and potency. […]
GABA was then applied in combination with various concentrations of the compound of formula (II) between 0.3 nM and 3,000 nM to produce a cumulative concentration response curve. […] In each batch of oocytes the stimulation by 1 μM diazepam was determined in five oocytes, extent of stimulation averaged and defined as 100%. Where indicated, stimulation by the compound of formula (II) in each batch of oocytes was expressed as a percentage of this value in the corresponding batch. […]

[2] = tested on: GABAA receptors; details: 20 mg, PET, in man; cited from earlier work
[3] = elderly; cited from earlier work
[4] = target: T2, α2β2γ2 GABAA receptors (Rattus norvegicus, UniProt P18508+P23576); assay: Stimulation of currents elicited by GABA (EC3-5), two-electrode voltage clamp, receptors expressed in Xenopus oocytes; format: cell-based; details: 1 μM; different batches of oocytes, n=5 each
T2 construct: expressed in transfected cells; host or cells: Xenopus laevis oocytes, cRNA microinjection
T2 sequence (P23576 29-451): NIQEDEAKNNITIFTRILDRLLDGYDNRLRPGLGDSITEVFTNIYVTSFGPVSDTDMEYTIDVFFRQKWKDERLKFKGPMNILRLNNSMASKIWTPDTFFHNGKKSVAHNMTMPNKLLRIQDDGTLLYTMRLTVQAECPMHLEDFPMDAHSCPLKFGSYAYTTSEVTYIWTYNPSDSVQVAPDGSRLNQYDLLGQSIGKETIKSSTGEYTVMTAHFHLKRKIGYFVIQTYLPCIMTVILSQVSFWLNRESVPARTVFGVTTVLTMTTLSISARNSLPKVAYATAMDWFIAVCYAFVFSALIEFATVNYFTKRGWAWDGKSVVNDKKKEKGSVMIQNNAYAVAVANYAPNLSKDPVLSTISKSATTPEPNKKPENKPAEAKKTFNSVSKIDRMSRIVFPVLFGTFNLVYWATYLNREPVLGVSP
T2 sequence (P63138 25-474 partner limits assumed): as the sequence (P63138 25-474 partner limits assumed) above
T2 sequence (P18508 39-466): as the sequence (P18508 39-466) above
Text: as §1, §2, §3
as §4, with “The medium contained 90 mM NaCl, 1 mM KCl, 1 mM MgCl2, 1 mM CaCl2, 10 mM Na-Hepes (pH 7.4) and 0.5% DMSO.” left out
(§5) GABA was applied for 20-50 seconds without or in combination with other drugs and a washout period of 4 minutes was allowed to ensure full recovery from desensitization, which was experimentally determined. […]
(§6) Data is given as mean±SD, except in the figures where data is shown for clarity as mean±SEM. Current stimulation was calculated as follows: stimulation (%)=((I(GABA+modulator)−I(GABA))/I(GABA))×100%, where I is the current amplitude. […]
(§7) Current stimulation by diazepam was determined in each batch of oocytes as follows. […]

[5] = target: T3, α3β2γ2 GABAA receptors (Rattus norvegicus, UniProt P18508+P20236); assay: as above; format: cell-based; details: 1 μM; different batches of oocytes, n=5 each
T3 construct: expressed in transfected cells; host or cells: Xenopus laevis oocytes, cRNA microinjection
T3 sequence (P20236 29-493): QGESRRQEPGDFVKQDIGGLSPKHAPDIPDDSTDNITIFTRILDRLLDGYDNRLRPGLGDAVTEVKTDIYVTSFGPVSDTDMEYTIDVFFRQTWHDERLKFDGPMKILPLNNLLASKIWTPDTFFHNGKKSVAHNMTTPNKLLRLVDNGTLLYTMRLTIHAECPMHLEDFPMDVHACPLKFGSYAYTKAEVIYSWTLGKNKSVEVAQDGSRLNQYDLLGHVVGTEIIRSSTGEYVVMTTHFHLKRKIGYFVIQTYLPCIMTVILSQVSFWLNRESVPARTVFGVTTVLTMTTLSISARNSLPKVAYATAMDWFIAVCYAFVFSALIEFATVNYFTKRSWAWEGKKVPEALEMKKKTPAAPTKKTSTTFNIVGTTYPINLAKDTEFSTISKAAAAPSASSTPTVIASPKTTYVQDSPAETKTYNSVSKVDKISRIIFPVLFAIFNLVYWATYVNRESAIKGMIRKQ
T3 sequence (P63138 25-474 partner limits assumed): as the sequence (P63138 25-474 partner limits assumed) above
T3 sequence (P18508 39-466): as the sequence (P18508 39-466) above
Text: as §1, §2, §3
as §4, with “The medium contained 90 mM NaCl, 1 mM KCl, 1 mM MgCl2, 1 mM CaCl2, 10 mM Na-Hepes (pH 7.4) and 0.5% DMSO.” left out
as §5, §6, §7

[6] = target: T4, α5β2γ2 GABAA receptors (Rattus norvegicus, UniProt P18508+P19969); assay: as above; format: cell-based; details: 1 μM; different batches of oocytes, n=5 each
T4 construct: expressed in transfected cells; host or cells: Xenopus laevis oocytes, cRNA microinjection
T4 sequence (P19969 32-464 limits assumed): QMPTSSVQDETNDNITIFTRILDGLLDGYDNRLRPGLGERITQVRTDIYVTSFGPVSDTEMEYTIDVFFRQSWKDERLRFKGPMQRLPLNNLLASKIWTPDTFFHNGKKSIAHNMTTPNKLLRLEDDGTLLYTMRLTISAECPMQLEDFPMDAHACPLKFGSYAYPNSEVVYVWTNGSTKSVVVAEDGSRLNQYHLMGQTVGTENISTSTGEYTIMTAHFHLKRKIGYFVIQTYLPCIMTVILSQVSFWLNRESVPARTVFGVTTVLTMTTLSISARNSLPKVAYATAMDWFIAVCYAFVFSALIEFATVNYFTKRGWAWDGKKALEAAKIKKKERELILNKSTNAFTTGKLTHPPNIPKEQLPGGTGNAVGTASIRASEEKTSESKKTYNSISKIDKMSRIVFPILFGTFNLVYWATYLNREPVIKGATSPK
T4 sequence (P63138 25-474 partner limits assumed): as the sequence (P63138 25-474 partner limits assumed) above
T4 sequence (P18508 39-466): as the sequence (P18508 39-466) above
Text: as §1, §2, §3
as §4, with “The medium contained 90 mM NaCl, 1 mM KCl, 1 mM MgCl2, 1 mM CaCl2, 10 mM Na-Hepes (pH 7.4) and 0.5% DMSO.” left out
as §5, §6, §7

**Q.** For `Cc1ccc(-c2nc3ccc(C)cn3c2CC(=O)N(C)C)cc1` [zolpidem], which “Receptor subtype affinity in comparison to α2β2γ2, α3β2γ2 and α5β2γ2” value [1] is on record?
**A.** The value was “higher affinity at α1β2γ2 GABAA receptors”.

**Q.** What about the “Intrinsic activity / type of allosteric modulation” value ([1]; GABAA receptor benzodiazepine site) of the same compound?
**A.** Its value is “full agonist”.

**Q.** And the receptor occupancy [2]?
**A.** The receptor occupancy was “about 20%”.

**Q.** Which half-life [3] does the source give for `CN1CCN(C(=O)O[C@H]2c3nccnc3C(=O)N2c2ccc(Cl)cn2)CC1` [eszopiclone] here?
**A.** Its half-life is 9 h.

**Q.** Which Current stimulation ([1]; 1 μM, different batches of oocytes, n=5 each) does the source give for `CN1C(=O)CN=C(c2ccccc2)c2cc(Cl)ccc21` [diazepam] here?
**A.** The Current stimulation was 223±28% and 178±20%.

**Q.** And the Current stimulation [4]?
**A.** The Current stimulation was 264±61% and 280±71% and 318±62%.

**Q.** What about the Current stimulation [5] of the same compound?
**A.** The Current stimulation was 417±85% and 417±144%.

**Q.** And the Current stimulation [6]?
**A.** Its Current stimulation is 237±97% and 160±4%.
